According to patent US20240082417A1, “PROTEIN-POLYMER DRUG CONJUGATES” (priority 2022, published 2024):
Non-standard residues stand in square brackets, D forms with d. Residues, ends and D or L forms follow the SMILES beside them. *: point of attachment. Dolaproine = CO[C@@H]([C@@H]1CCCN1)[C@@H](C)C(=O)O; Dil = CC[C@H](C)[C@H](NC)[C@@H](CC(=O)O)OC; NMe2Val = CC(C)[C@@H](C(=O)*)N(C)C; NH(3-hydroxypropyl) = OCCCN*

Legend:
[1] = target: 5T4 antigen on the cell surface (A431 cells and MDA-MB-231-5T4 OE cells) (human) (UniProt Q13641); experiment: flow cytometry (MFI) on 5T4-expressing cells at 5 µg/mL, anti-Fc-FITC detection
[2] = Tolerability of Auristatin F-hydroxypropylamide (MTD study); type: in vivo, mouse
Text: The vehicle control group received physiological saline.

Sequence of UniProt Q13641 (Q13641 32-420): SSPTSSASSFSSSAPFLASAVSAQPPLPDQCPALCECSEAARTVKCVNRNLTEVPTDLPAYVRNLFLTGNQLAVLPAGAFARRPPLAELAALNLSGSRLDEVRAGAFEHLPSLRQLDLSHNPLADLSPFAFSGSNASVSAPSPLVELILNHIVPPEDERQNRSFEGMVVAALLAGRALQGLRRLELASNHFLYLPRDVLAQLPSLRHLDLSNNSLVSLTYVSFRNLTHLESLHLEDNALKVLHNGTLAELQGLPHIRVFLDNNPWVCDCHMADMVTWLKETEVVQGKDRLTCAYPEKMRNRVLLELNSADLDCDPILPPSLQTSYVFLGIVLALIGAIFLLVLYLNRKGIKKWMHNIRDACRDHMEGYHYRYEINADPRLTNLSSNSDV

fold less binding than the anti-5T4 scFvFc molecules [1] [fold]	Molecule	Animals survived by the end of the study (Day 21) ([2]; single IV dose 3.2 mg/kg)	Tolerability ([2]; single IV dose 4.7 mg/kg)
200	unrelated scFvFc fusion protein	–	–
–	CC[C@H](C)[C@@H]([C@@H](CC(=O)N1CCC[C@H]1[C@H](OC)[C@@H](C)C(=O)N[C@@H](Cc1ccccc1)C(=O)NCCCO)OC)N(C)C(=O)[C@@H](NC(=O)[C@H](C(C)C)N(C)C)C(C)C [AF-HPA, auristatin F hydroxypropyl amide] (NMe2Val-V[Dil][Dolaproine]F-{NH(3-hydroxypropyl)})	2 out of 6	exceeded the maximum tolerated dose
